Measured values from patent publication US7635696B2, “Isoxazoline-indole derivatives with an improved antipsychotic and anxiolytic activity” (Janssen Pharmaceutica N.V., priority 2004, dated 2009).

Columns and labels:
[1] = target: T1, Human Dopamine D2L receptor (Homo sapiens, UniProt P14416); test: Binding experiment for dopamine D2 receptor ([3H]Spiperone); settings: D2L-transfected CHO cell membranes; for IC50: read-out: pIC50 D2 (converted)
T1 construct: expressed in transfected cells; host or cells: CHO cells
Description: (§1) The interaction of the compounds of Formula (I) with dopamine-receptors, h5HT-transporter and h5HT1A receptor was assessed in in vitro radioligand binding experiments. In general, a low concentration of a radioligand with a high binding affinity for a particular receptor or transporter is incubated with a sample of a tissue preparation enriched in a particular receptor or transporter or with a preparation of cells expressing cloned human receptors in a buffered medium. During the incubation, the radioligand binds to the receptor or transporter. When equilibrium of binding is reached, the receptor bound radioactivity is separated from the non-bound radioactivity, and the receptor- or transporter-bound activity is counted. The interaction of the test compounds with the receptor is assessed in competition binding experiments. Various concentrations of the test compound are added to the incubation mixture containing the receptor- or transporter preparation and the radioligand. The test compound in proportion to its binding affinity and its concentration inhibits binding of the radioligand.
Human Dopamine D2L receptor-transfected CHO cells were collected by scraping into ice-cold Tris-HCl buffer (50 mM, pH 7.4). The suspension was centrifuged (23 500×g, 10 min, 4° C.) and pellets stored at −70° C. until required. They were then thawed and briefly homogenised using an Ultra-Turrax T25 homogeniser prior to dilution to an appropriate protein concentration optimised for specific and non-specific binding. [^3H]Spiperone (NEN, specific activity ˜70 Ci/mmol) was diluted in Tris-HCl assay buffer containing NaCl, CaCl2, MgCl2, KCl (50, 120, 2, 1, and 5 mM respectively, adjusted to pH 7.7 with HCl) at a concentration of 2 nmol/L. Prepared radioligand (50 μl) was then incubated (30 min, 37° C.) with membrane preparations pre-diluted to an appropriate protein concentration (400 μl), and with 50 μl of either the 10% DMSO control, Butaclamol (10^−6 mol/L final concentration), or compound of interest. Membrane-bound activity was detected by filtration through a Packard Filtermate harvester onto Unifilterplates, washing with ice-cold Tris-HCl buffer (50 mM; pH8.0; 3×4 ml). Filters were allowed to dry before adding scintillation fluid and counting in a Topcount scintillation counter. % Specific bound and competition binding curves were calculated using S-Plus software (Insightful).

[2] = target: T2, human 5HT transporter (Homo sapiens, UniProt P31645); test: Binding experiment for 5-HT transporter ([3H]Paroxetine); settings: transfected HEK cell membranes, [3H]Paroxetine; for IC50: read-out: pIC50 5HTT (converted)
T2 construct: host or cells: HEK cells
Description: as §1
Frozen human 5HT transporter-transfected HEK cells (Perkin Elmer, Brussels) were thawed and briefly homogenised using an Ultra-Turrax T25 homogeniser prior to dilution to an appropriate protein concentration optimised for specific and non-specific binding. [^3H]Paroxetine (NEN, specific activity 20 Ci/mmol) was diluted in Tris-HCl assay buffer containing NaCl and KCl (50 mM, 120 mM and 5 mM, respectively; pH 7.4) at a concentration of 5 nmol/L. Prepared radioligand (25 μl) was then incubated (60 min, 25° C.) with membrane preparations (200 μl) and with 25 μl of either 10% DMSO control, Inipramine (10^−6 mol/L final concentration), or compound of interest. Membrane-bound activity was detected by filtration through a Packard Filtermate harvester onto Unifilterplates pre-soaked in 0.1% PEI, washing with ice-cold assay buffer (3×4 ml). Filters were dried prior to addition of scintillation fluid and then counting in a Topcount scintillation counter. % Specific bound and competition binding curves were calculated using S-Plus software (Insightful).

[3] = target: T3, Human 5HT1A receptor (Homo sapiens, UniProt P08908); test: Binding experiment for 5-HT1A receptor ([3H]8OHDPAT); settings: transfected L929 cell membranes, [3H]8OHDPAT; for IC50: read-out: pIC50 5-HT1A (converted)
T3 construct: expressed in transfected cells; host or cells: L929 cells (stably transfected)
T3 sequence (P08908 1-422): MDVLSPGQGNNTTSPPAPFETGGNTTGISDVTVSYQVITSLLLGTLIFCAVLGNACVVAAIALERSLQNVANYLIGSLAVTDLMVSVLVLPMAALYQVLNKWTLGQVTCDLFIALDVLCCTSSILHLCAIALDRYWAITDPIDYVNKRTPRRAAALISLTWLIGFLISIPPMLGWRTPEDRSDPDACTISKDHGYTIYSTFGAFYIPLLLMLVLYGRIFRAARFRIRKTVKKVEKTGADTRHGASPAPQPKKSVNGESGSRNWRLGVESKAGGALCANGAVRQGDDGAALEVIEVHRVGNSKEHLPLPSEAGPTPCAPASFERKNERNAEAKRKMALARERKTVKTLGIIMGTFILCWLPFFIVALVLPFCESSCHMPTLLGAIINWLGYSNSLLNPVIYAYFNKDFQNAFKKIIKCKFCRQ
Description: as §1
Human 5HT1A receptor-transfected L929 cells were collected by scraping into ice-cold Tris-HCl buffer (50 mM, pH 7.4). The suspension was centrifuged (23 500×g, 10 min, 4° C.) and pellets stored at −70° C. until required. They were then thawed and briefly homogenised using an Ultra-Turrax T25 homogeniser prior to dilution to an appropriate protein concentration optimised for specific and non-specific binding. [^3H]80HDPAT (NEN, specific activity 127 Ci/mmol) was diluted in Tris-HCl assay buffer containing CaCl2 (50 mM and 4 mM, respectively; pH 7.7) at a concentration of 5 nmol/L. Prepared radioligand (50 μl) was then incubated (30 min, 37° C.) with membrane preparations from L929 cells stably-transfected with the h5HT1A gene construct (400 μl) and with 50 μl of either the 10% DMSO control, spiroxatrine (10^−6 mol/L final concentration), or compound of interest. Membrane-bound activity was detected by filtration through a Packard Filtermate harvester onto Unifilterplates, washing with ice-cold Tris-HCl buffer (3×4 ml), followed by drying. Scintillation fluid was added and membranes were counted in a Topcount scintillation counter. % Specific bound and competition binding curves were calculated using S-Plus software (Insightful).

T1 sequence (P14416 whole entry): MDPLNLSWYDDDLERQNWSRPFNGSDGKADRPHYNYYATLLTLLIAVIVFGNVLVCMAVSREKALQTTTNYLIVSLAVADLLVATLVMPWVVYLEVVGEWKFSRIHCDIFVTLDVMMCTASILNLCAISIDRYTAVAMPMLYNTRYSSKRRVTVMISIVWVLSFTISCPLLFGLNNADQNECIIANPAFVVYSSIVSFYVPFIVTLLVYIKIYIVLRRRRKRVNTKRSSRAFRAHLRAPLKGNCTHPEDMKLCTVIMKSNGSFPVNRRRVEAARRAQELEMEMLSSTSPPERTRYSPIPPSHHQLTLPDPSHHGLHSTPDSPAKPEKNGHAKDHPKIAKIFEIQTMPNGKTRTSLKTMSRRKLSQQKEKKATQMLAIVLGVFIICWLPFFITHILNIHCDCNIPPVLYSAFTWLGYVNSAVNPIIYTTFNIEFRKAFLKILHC
T2 sequence (P31645 whole entry): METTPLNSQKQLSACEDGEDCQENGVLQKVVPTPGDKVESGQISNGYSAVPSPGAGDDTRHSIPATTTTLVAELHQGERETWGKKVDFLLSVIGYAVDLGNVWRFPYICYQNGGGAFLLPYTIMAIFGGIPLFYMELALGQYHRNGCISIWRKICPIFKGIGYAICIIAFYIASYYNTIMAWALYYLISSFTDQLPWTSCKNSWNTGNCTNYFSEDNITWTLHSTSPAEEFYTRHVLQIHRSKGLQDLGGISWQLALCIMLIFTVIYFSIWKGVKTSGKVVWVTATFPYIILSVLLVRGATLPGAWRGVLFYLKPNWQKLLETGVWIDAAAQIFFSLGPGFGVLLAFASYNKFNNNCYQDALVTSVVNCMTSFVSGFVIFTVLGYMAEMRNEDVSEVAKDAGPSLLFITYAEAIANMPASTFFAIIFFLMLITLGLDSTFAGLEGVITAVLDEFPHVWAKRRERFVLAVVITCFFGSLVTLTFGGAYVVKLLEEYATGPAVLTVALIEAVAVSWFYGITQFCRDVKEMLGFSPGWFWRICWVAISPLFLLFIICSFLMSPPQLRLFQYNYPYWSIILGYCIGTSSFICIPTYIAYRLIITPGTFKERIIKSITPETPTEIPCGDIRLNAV

SMILES	IC50 [1]	IC50 [2]	IC50 [3]	pIC50 D2 [1]	pIC50 5HTT [2]	pIC50 5-HT1A [3]
COc1ccc2[nH]cc(C3CCN(CC4ON=C5c6cc(OC)c(OC)cc6OCC54)CC3)c2c1 (racemic) [Compound 8]	> 1 µM	1.26 µM	0.00794 µM			
CCNC(=O)Nc1ccc2[nH]cc(C3=CCN(CC4ON=C5c6cc(OC)c(OC)cc6OCC54)CC3)c2c1 (racemic) [Compound 37]	> 10 µM	> 10 µM	0.00794 µM			
COc1cc2c(cc1OC)C1=NOC(CN3CC=C(c4c[nH]c5ccc(NC(=O)Nc6ccccc6)cc45)CC3)C1CO2 (racemic) [Compound 38]				<5	<5	8.4
CCOC(=O)CNC(=O)Nc1ccc2[nH]cc(C3=CCN(CC4ON=C5c6cc(OC)c(OC)cc6OCC54)CC3)c2c1 (racemic) [Compound 39]				<5	<5	7.8
COc1cc2c(cc1OC)C1=NOC(CN3CC=C(c4c[nH]c5ccc(NC(C)=O)cc45)CC3)C1CO2 (racemic) [Compound 40]	> 10 µM	> 10 µM	0.00316 µM			
COCC(=O)Nc1ccc2[nH]cc(C3=CCN(CC4ON=C5c6cc(OC)c(OC)cc6OCC54)CC3)c2c1 (racemic) [Compound 41]				<5	<5	8.3
CCOC(=O)C(=O)Nc1ccc2[nH]cc(C3=CCN(CC4ON=C5c6cc(OC)c(OC)cc6OCC54)CC3)c2c1 (racemic) [Compound 42]				<5	<5.5	8.2
COc1cc2c(cc1OC)C1=NOC(CN3CC=C(c4c[nH]c5ccc(NS(C)(=O)=O)cc45)CC3)C1CO2.O=C(O)C(F)(F)F (racemic) [Compound 43]				6.0	<5	8.7
COc1cc2c(cc1OCCO)OCC1C2=NOC1CN1CCC(c2c[nH]c3ccc(F)cc23)CC1 (racemic) [Compound 47]	0.1 µM	0.398 µM				
COc1cc2c(cc1OCCOC(C)=O)OCC1C2=NOC1CN1CCC(c2c[nH]c3ccc(F)cc23)CC1 (racemic) [Compound 48]	0.158 µM	0.0794 µM	0.00158 µM			
COCC(=O)OCCOc1cc2c(cc1OC)C1=NOC(CN3CCC(c4c[nH]c5ccc(F)cc45)CC3)C1CO2 (racemic) [Compound 49]				6.7	6.9	
CCNC(=O)OCCOc1cc2c(cc1OC)C1=NOC(CN3CCC(c4c[nH]c5ccc(F)cc45)CC3)C1CO2 (racemic) [Compound 50]				6.8	6.9	8.6
Fc1ccc2c(C3CCN(CC4ON=C5c6ccc(NCCN7CCCC7)cc6OCC54)CC3)c[nH]c2c1 (racemic) [Compound 51]				7.9	8.2	7.7
Fc1ccc2c(C3CCN(CC4ON=C5c6ccc(N7CCOCC7)cc6OCC54)CC3)c[nH]c2c1 (racemic) [Compound 52]				7.5	7.4	7.5
